Results reported in ChEMBL document CHEMBL1201862, “PubChem BioAssay data set” (2004).
Active and inactive are the calls of the source.

What was measured:
[1] = biological target: DNA dC->dU-editing enzyme APOBEC-3A (Homo sapiens, UniProt P31941); assay: Dose Response confirmation of small molecule APOBEC3A DNA Deaminase Inhibitors via a fluorescence-based single-stranded DNA deaminase assay. [Related pubchem assays (depositor defined):AID493011, AID493024]; assay type: functional
[2] = biological target: DNA dC->dU-editing enzyme APOBEC-3G (Homo sapiens, UniProt Q9HC16); assay type: functional;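 also: Dose-response counterscreen measuring inhibition of APOBEC3G DNA deaminase activity, run while confirming APOBEC3A inhibitors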
DNA dC->dU-editing enzyme APOBEC-3G, sequence (Q9HC16 whole entry): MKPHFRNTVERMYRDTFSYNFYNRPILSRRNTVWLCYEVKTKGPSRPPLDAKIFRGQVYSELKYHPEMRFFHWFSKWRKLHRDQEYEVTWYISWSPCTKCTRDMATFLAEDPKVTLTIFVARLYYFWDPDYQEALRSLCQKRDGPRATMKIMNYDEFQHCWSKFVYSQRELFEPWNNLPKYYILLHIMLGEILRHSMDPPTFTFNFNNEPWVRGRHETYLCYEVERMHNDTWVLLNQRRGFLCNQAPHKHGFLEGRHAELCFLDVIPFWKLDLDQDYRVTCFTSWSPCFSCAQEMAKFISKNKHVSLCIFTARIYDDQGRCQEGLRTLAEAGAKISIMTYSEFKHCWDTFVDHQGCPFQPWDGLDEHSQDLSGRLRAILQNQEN

[3] = biological target: T1, Microphthalmia-associated transcription factor (Homo sapiens, UniProt O75030); assay: reducers of TRPM1 reporter luminescence, concentration series – cell-based, SK-MEL-5, cherry-picked, set 3, MITF inhibitor project, dose response (AID 493073); assay type: functional;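 also: SK-MEL-5 melanoma cells with luciferase driven by the MITF target TRPM1 promoter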
T1 sequence (O75030 whole entry): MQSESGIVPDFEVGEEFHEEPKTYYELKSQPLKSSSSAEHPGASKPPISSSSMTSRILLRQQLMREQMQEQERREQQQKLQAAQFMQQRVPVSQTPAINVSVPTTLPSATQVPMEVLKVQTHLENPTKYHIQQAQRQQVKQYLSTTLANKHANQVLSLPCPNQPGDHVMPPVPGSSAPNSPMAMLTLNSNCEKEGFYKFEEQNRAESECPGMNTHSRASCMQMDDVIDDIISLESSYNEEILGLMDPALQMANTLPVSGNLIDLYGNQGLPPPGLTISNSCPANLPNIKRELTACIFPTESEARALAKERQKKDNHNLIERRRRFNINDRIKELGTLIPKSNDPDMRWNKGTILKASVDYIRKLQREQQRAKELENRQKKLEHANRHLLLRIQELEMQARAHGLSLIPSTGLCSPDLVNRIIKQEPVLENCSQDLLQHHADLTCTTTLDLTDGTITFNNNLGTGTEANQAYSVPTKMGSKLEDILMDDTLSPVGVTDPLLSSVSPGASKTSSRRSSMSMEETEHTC

[4] = Vero E6 cell cytotoxicity, dose response, cytotoxicity control for non-replicating M. tuberculosis project, secondary assay (AID 492998); assay type: functional, VeroE6; conditions: Vero C1008
[5] = THP-1 cell cytotoxicity, dose response, cytotoxicity control for non-replicating M. tuberculosis project (AID 489025); assay type: functional
[6] = cytotoxicity toward MDA-MB-231 breast cancer cells – cell-based, CellTiter-Glo luminescence, cherry-pick, cytotoxicity control for RAD54 inhibitor project, dose response (AID 651692); assay type: functional
[7] = biological target: SWI/SNF-related matrix-associated actin-dependent regulator of chromatin subfamily A member 2 (Homo sapiens, UniProt P51531); assay: Luminescence-based cell-based high throughput dose response assay to identify activators of the function of SWI/SNF related, matrix associated, actin dependent regulator of chromatin, subfamily a, member 2 (SMARCA2, BRM).; assay type: functional
SWI/SNF-related matrix-associated actin-dependent regulator of chromatin subfamily A member 2, sequence (P51531 whole entry): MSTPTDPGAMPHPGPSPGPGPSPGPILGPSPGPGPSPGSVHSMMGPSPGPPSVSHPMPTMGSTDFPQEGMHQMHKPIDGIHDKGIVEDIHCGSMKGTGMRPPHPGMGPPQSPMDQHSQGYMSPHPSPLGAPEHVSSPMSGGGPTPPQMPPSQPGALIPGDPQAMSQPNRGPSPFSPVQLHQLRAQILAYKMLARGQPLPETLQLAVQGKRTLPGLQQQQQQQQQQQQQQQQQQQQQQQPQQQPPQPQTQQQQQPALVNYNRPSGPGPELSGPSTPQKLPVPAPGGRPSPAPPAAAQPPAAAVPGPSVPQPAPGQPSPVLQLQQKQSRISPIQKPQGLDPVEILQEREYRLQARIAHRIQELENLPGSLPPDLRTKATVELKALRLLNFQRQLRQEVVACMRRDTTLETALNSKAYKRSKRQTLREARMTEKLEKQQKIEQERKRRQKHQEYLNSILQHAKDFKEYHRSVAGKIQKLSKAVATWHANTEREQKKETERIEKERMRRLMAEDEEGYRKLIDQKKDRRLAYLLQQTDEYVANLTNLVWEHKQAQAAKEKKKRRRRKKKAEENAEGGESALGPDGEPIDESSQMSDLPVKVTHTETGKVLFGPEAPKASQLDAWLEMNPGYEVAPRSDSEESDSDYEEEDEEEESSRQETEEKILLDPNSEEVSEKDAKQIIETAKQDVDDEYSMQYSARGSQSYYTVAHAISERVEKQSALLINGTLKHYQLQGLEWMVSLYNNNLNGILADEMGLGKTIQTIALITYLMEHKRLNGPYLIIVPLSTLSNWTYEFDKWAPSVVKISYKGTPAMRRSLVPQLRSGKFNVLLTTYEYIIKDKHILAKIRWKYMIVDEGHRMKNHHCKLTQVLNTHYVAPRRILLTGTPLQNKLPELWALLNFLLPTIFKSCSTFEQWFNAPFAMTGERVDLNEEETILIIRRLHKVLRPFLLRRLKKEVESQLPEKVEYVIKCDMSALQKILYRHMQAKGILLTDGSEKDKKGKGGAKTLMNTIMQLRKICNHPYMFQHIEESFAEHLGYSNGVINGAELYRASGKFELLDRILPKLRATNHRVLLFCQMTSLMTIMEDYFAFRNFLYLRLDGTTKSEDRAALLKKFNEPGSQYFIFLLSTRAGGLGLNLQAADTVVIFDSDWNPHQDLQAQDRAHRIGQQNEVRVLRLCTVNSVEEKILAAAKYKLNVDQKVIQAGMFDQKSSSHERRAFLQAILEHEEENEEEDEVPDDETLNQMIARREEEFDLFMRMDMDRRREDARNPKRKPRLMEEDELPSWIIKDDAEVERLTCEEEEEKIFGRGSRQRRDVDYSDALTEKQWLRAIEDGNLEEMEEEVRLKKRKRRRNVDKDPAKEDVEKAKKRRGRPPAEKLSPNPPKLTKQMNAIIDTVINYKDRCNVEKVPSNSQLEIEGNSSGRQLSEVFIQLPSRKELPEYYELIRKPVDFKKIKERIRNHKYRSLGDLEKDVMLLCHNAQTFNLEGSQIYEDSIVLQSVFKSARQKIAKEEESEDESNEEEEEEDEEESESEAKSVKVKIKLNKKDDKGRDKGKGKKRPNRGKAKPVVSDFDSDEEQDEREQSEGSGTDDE

[8] = tested on: A-375; assay: proliferation inhibition in MITF-low A375 cells – cell-based, cherry-pick samples, set 2, counter-screen for MITF modulator project, dose response (AID 540335); assay type: functional; conditions: Homo sapiens
[9] = biological target: T2, Ubiquitin-conjugating enzyme E2 N (Homo sapiens, UniProt P61088); assay type: functional;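 also: Dose-response confirmation in a TR-FRET assay detecting UBC13-driven polyubiquitin chain formation, inhibition measured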
T2 sequence (P61088 whole entry): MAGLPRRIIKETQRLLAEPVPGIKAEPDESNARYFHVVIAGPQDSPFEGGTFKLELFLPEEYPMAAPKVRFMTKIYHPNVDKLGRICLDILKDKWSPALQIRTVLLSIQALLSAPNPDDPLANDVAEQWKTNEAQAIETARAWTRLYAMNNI

[10] = Counterscreen for activators of the function of SWI/SNF related, matrix associated, actin dependent regulator of chromatin, subfamily a, member 2 (SMARCA2, BRM): Luminescence-based cell-based high throughput dose response assay to identify non-selective compounds using the VP16 reporter assay.; assay type: functional
[11] = cells; assay type: functional
[12] = HepG2 cell cytotoxicity, dose response, cytotoxicity control for non-replicating M. tuberculosis project (AID 489018); assay type: functional; conditions: Mycobacterium tuberculosis
[13] = biological target: T3, DNA repair and recombination protein RAD54-like (Homo sapiens, UniProt Q92698); assay: RAD54 Holliday junction migration blockers – biochemical, fluorescence, cherry-picked samples, dose series, confirmation (AID 651657); assay type: functional
T3 sequence (Q92698 whole entry): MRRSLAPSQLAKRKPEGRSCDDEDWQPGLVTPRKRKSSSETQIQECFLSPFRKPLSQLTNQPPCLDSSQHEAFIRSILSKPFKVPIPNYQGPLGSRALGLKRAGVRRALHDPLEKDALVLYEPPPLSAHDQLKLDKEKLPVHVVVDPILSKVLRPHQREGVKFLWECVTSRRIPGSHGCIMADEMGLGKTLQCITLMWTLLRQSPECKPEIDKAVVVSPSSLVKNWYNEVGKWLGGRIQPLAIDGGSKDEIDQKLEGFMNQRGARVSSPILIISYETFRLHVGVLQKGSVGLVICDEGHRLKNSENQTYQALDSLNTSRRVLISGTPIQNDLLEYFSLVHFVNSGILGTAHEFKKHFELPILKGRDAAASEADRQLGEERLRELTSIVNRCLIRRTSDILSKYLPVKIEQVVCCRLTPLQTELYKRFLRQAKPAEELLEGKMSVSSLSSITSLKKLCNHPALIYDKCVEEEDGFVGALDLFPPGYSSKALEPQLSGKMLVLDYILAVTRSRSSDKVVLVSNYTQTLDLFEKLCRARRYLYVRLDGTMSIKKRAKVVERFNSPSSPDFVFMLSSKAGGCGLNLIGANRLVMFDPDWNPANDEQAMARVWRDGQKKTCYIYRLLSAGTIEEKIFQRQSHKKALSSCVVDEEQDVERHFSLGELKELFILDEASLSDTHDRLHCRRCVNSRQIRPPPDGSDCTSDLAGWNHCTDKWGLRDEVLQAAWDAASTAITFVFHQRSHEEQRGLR

DNA dC->dU-editing enzyme APOBEC-3A, sequence (P31941 whole entry): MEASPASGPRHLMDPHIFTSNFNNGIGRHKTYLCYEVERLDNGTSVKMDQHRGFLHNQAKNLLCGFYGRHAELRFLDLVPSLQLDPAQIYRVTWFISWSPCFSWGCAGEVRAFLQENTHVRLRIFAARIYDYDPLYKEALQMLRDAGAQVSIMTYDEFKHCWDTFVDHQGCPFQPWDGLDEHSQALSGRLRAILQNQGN

Row | SMILES | IC50 [1] | IC50 [2] | AC50 [3] | CC50 [4] | CC50 [5] | AC50 [6] | EC50 [7] | AC50 [8] | IC50 [9] | EC50 [10] | IC50 [11] | CC50 [12] | AC50 [13]
1 | CC(=O)Nc1nc(CC(C)C)cc(-c2ccco2)c1C#N | 4.18 µM (active) | 5.76 µM (active) |  |  |  |  |  |  |  |  |  |  | 
2 | O=[N+]([O-])c1ccccc1/C=N/NC1=NCCN1 | 5.96 µM (active) | 6.95 µM (active) |  |  |  |  |  |  |  |  |  |  | 
3 | CCOC(=O)c1c(NC(C)=O)sc2c(OCC(O)CNC(C)(C)C)c(Br)ccc12 (stereo not given) |  |  | 7.72 µM (active) | 7.28 µM (active) | 12.5 µM (active) | 21 µM (active) | > 91.2 µM (inactive) | 19.9 µM (active) | > 20 µM (inactive) | > 91.2 µM (inactive) | 10.2 µM (active) | 11.9 µM (active) | 8.96 µM (active)
